*1 amine or outer side, *2 acyl side, *3 side chain or, on linkers, in order; H or OH if unused. Where a SMILES comes first, the peptide text is derived from it. The star is where a group is joined. X1 = O=C(CCCC[C@@H]1SC[C@@H]2NC(=O)N[C@@H]21)NCCCOCCOCCOCCCN*; Suc = O=C(CCC(=O)[*:2])[*:1]
What was measured:
SCRIB PDZ4 = details: fragmentomic, isolated PDZ domain; cited from earlier work
Text: (§1) Supplement sciadv.ade3828_table_s1.zip/sciadv.ade3828_table_s1.xlsx, sheet "nHU-WB_SP"

SCRIB PDZ2 = details: fragmentomic, isolated PDZ domain; cited from earlier work
Text: as §1

SCRIB PDZ3 = details: fragmentomic, isolated PDZ domain; cited from earlier work
Text: as §1

SCRIB PDZ1 = details: fragmentomic, isolated PDZ domain; cited from earlier work
Text: Supplement sciadv.ade3828_table_s1.zip/sciadv.ade3828_table_s1.xlsx, sheet "nHU-WB_SP" | column: Domain-motif fragmentomic affinities (ProfAff)

[1] = biological target: isolated PDZ domain of SNX27; details: 10-mer PBM peptide vs isolated PDZ domain, holdup; cited from earlier work
[2] = biological target: isolated PDZ domain of SNX27; details: calorimetry; cited from earlier work
[3] = biological target: endogenous full-length SCRIB (Homo sapiens, UniProt Q14160); assay type: binding; details: titration, Jurkat extract
SNX27_PDZ [4] = assay: AP-MS control pull-down on leftover resin, SNX27_PDZ bait, total SH-SY5Y extracts; assay type: binding, human; details: n = 6
Method: (§2) Leftover beads from nHU-MS experiments were washed three times immediately after the separation of the supernatant [10 resin volume in buffer containing 50 mM tris (pH 8.5), 150 mM NaCl, 1% Triton X-100, 10× cOmplete EDTA-free protease inhibitor cocktail, 2 mM EDTA, and 1 mM TCEP]. Then, the beads were washed two times [10 resin volume buffer containing 50 mM tris (pH 8.5), 150 mM NaCl, and 1 mM TCEP]. Last, captured protein was eluted from the resin in two steps, and the eluted fractions were pooled. For each elution, the beads were incubated for 30 min with three resin volume buffer containing 20 mM tris (pH 8.5), 100 mM NaCl, 500 μM TCEP, and 8 M urea. Between each step, the beads were separated by mild centrifugation, and the supernatant was removed by gentle pipetting.
(§3) The nHU samples were precipitated with trichloroacetic acid (TCA) 20% overnight at 4°C and centrifuged at 14,000 rpm for 10 min at 4°C. The protein pellets were washed twice with 1 ml of cold acetone and air-dried. The protein extracts were solubilized in 8 M urea, reduced with 5 mM TCEP for 30 min, and alkylated with 10 mM iodoacetamide for 30 min in the dark. Double digestion was performed at 37°C with 500 ng of endoproteinase Lys-C (Wako, Richmond, USA) for 4 hours, followed by fourfold dilution and an overnight digestion with 500 ng of trypsin (Promega, Charbonnieres les Bains, France). Peptide mixtures were then desalted on a C18 spin-column and dried on a speed vacuum.
(§4) Samples were analyzed using an Ultimate 3000 nano-RSLC coupled in line via a nano-electrospray ionization source, with an LTQ-Orbitrap ELITE mass spectrometer (Thermo Fisher Scientific, San Jose, CA) or with the Orbitrap Exploris 480 mass spectrometer (Thermo Fisher Scientific, Bremen, Germany) equipped with a high field asymmetric ion mobility spectrometry (FAIMS) module. Peptide mixtures were injected in 0.1% trifluoroacetic acid on a C18 Acclaim PepMap100 trap column [75 μm inner diameter (ID) × 2 cm, 3 μm, 100 Å, Thermo Fisher Scientific] for 3 min at 5 μl/min with 2% acetonitrile (ACN) and 0.1% formic acid (FA) in H2O and then separated on a C18 Acclaim PepMap100 nano-column (75 μm ID × 50 cm, 2.6 μm, 150 Å, Thermo Fisher Scientific) at 300 nl/min and 40°C with a 90-min linear gradient from 5 to 30% buffer B (A: 0.1% FA in H2O/B: 80% ACN, 0.1% FA in H2O) and regeneration at 5% B. Spray voltage was set to 2.1 kV and heated capillary temperature was set to 280°C.
For the Orbitrap Elite, the mass spectrometer was operated in positive ionization mode in data-dependent mode with survey scans from mass/charge ratio (m/z) 350 to 1500 acquired in the Orbitrap at a resolution of 120,000 at m/z 400. […]

SNX27_PDZ [5] = assay: nHU-MS, SNX27_PDZ bait, total SH-SY5Y extracts; assay type: binding, human; details: for pKapp_HU_not_filtered / pKapp_significant_binders_HU: apparent; for pKapp_HU_not_filtered: Eq. 2, not filtered for significance; for pKapp_significant_binders_HU: Eq. 2, significant binders (1 σ, P < 0.05); for BI_HU / FC_HU (log2 fold change) / Ratio_HU: n = 6
Method: (§5) The empty His6-AviTag-MBP-TEV vector was used to produce biotinylated MBP for control experiments. Proteins were coexpressed with BirA biotin ligase (PET21a-BirA, Addgene, no. 20857) in Escherichia coli BL21(DE3) cells. At isopropyl-β-D-thiogalactopyranoside (IPTG) induction (1 mM IPTG at 18°C overnight), 50 μM biotin was added to the media. Harvested cells were lysed in a buffer containing 50 mM tris (pH 7.5), 150 to 300 mM NaCl, 50 μM biotin, 2 mM β-mercaptoethanol, cOmplete EDTA-free protease inhibitor cocktail (Roche, Basel, Switzerland), 1% Triton X-100, and trace amount of deoxyribonuclease, ribonuclease, and lysozyme. Lysates were frozen at −20°C before further purification steps. Lysates were sonicated and centrifuged for clarification. Expressed proteins were captured on in-house prepacked Ni-IDA (Protino Ni-IDA Resin, Macherey-Nagel, Duren, Germany) columns and were washed with at least 10 column volumes of cold wash buffer [50 mM tris (pH 7.5), 150 mM NaCl, and 2 mM β-mercaptoethanol] before elution with 250 mM imidazole. The Ni elution was collected directly on a preequilibrated amylose column (amylose high flow resin, New England Biolabs, Ipswich, MA). Amylose column was washed with 5 column volumes of cold wash buffer before fractionated elution in a buffer containing 25 mM Hepes (pH 7.5), 150 mM NaCl, 1 mM TCEP, 10% glycerol, 5 mM maltose, and cOmplete EDTA-free protease inhibitor cocktail. The concentration of proteins was determined by their ultraviolet absorption at 280 nm before aliquots were snap-frozen in liquid nitrogen and stored at −80°C.
(§6) For saturating streptavidin resin with biotinylated peptides or biotin, 50 μl of streptavidin resin was mixed with biotin or peptide at 40 to 60 μM concentration in 6 to 6.5 resin volume for 60 min. To saturate streptavidin resin with biotinylated proteins, 50 μl of streptavidin resin (Streptavidin Sepharose High Performance, Cytiva) was mixed with biotinylated MBP or MBP-PDZ at 40 to 50 μM concentration in 20× resin volume for 60 min. After saturation, resins were washed a single time [10 resin volume, holdup buffer: 50 mM tris (pH 7.5), 300 mM NaCl, and 1 mM TCEP, 0.22-μm filtered] and were depleted with biotin (10 resin volume, 10 min, holdup buffer supplemented with 100 μM biotin). Last, resins were washed two times (10 resin volume, holdup buffer).
(§7) For single-point nHU experiments carried out at ~10 μM bait concentration, 50 μl of saturated streptavidin resin was mixed with 200 μl of cell lysate (2 mg/ml). Titration experiments were carried out by mixing control and bait-saturated resin and keeping the total resin volume constant; e.g., ~5 μM bait concentration can be achieved by mixing 25 μl of bait-saturated streptavidin resin with 25 μl of control resin and 200 μl of cell lysate (2 mg/ml). Control and bait-saturated resins were prepared in larger amounts, and a serial dilution was prepared with these presaturated resins to achieve different resin ratios.
(§8) Unless specified elswhere, the nHU mixture was incubated at 4°C for 2 hours. After the incubation ended, the resin was separated from the supernatant by a brief centrifugation (15 s, 2000 g). Then, half of the supernatant was removed by pipetting without any delay to avoid any resin contamination; e.g., 100 μl of supernatant is collected if 200 μl of cell lysate was used as analyte. Alternatively, the supernatant can be centrifuged an additional time to clarify it further, removing any possible resin contamination. In principle, the separation of the supernatant should be as fast as possible since any delay can perturb the equilibrium. […] Alternatively, the resin can be separated from the supernatant using filter plates (e.g., various products of Millipore, Burlington, MA) or spin columns (e.g., Pierce spin cups—cellulose acetate filter from Thermo Fisher Scientific, Waltham, MA) to achieve faster separation. […]

SNX27_PDZ [6] = assay: nHU-MS, SNX27_PDZ bait, total Jurkat extracts, series 1; assay type: binding, human
Method: as §5, §6, §7, §8

SNX27_PDZ [7] = assay: AP-MS control pull-down on leftover resin, SNX27_PDZ bait, total Jurkat extracts; assay type: binding, human
Method: as §2, §3, §4
For the Orbitrap Elite, the mass spectrometer was operated in positive ionization mode in data-dependent mode with survey scans from mass/charge ratio (m/z) 350 to 1500 acquired in the Orbitrap at a resolution of 120,000 at m/z 400. The 20 most intense peaks from survey scans were selected for further fragmentation in the linear ion trap with an isolation window of 2.0 Da and were fragmented by collision-induced dissociation (CID) with a normalized collision energy of 35% (TOP 20 CID method). Unassigned and single-charged states were excluded from fragmentation. The ion target value for the survey scans (in the Orbitrap) and the MS2 mode (in the linear ion trap) were set to 1E6 and 5E3, respectively, and the maximum injection time was set to 100 ms for both scan modes. Dynamic exclusion was set to 20 s after one repeat count with mass width at ±10 parts per million (ppm). […]

full-length SNX27 = assay: nHU-MS, recombinant full-length SNX27 bait, total Jurkat extracts; assay type: binding, human; details: apparent, Fig. 4D, n = 6
Method: as §5, with “Amylose column was washed with 5 column volumes of cold wash buffer before fractionated elution in a buffer containing 25 mM Hepes (pH 7.5), 150 mM NaCl, 1 mM TCEP, 10% glycerol, 5 mM maltose, and cOmplete EDTA-free protease inhibitor cocktail.” left out, “−80°C. […]” for “−80°C.”

[8] = Jurkat, series 1, leftover resin, n = 6

Chain of endogenous full-length SCRIB (Q14160 whole entry): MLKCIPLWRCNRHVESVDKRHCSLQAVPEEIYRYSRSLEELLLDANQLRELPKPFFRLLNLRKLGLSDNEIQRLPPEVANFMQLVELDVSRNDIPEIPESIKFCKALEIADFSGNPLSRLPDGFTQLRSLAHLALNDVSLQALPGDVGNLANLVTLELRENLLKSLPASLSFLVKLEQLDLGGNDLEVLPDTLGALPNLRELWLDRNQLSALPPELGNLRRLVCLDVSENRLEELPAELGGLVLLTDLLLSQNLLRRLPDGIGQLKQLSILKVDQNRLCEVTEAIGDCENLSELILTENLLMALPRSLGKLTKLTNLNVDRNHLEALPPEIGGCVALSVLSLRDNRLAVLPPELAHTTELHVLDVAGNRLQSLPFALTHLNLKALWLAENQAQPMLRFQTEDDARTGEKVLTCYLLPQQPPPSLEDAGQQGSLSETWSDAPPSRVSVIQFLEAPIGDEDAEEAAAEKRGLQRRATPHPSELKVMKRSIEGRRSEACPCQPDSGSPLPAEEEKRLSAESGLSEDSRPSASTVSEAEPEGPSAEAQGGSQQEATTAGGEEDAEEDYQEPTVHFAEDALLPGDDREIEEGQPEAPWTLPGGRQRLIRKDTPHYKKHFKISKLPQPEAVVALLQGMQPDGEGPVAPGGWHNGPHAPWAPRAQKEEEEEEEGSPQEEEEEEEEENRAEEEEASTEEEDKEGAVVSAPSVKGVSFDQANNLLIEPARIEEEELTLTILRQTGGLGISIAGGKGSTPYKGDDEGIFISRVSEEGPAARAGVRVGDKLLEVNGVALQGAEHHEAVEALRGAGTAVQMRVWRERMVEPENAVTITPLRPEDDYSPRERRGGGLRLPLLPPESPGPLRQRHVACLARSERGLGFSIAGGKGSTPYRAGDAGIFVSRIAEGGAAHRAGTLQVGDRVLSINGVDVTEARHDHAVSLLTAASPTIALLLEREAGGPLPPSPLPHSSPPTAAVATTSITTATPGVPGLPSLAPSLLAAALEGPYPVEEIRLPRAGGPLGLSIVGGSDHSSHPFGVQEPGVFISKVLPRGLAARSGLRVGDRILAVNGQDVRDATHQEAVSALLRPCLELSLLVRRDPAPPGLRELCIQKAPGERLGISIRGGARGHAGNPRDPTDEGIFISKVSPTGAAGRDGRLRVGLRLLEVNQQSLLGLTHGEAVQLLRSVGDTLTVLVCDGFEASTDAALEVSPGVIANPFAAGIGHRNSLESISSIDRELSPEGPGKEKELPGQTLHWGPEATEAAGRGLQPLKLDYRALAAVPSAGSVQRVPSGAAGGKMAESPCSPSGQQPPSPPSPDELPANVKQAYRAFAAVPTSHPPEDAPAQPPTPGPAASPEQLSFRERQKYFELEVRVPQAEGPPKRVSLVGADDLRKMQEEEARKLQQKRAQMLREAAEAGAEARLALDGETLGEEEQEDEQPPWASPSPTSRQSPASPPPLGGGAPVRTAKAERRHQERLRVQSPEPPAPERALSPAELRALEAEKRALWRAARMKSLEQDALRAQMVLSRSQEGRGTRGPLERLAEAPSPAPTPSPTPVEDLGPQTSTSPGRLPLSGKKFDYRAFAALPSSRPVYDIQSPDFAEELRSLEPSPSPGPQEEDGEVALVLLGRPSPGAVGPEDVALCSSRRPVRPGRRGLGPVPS

## CC(C)C[C@H](NC(=O)[C@H](CO)NC(=O)[C@H](CO)NC(=O)CCC(=O)NCCCOCCOCCOCCCNC(=O)CCCC[C@@H]1SC[C@@H]2NC(=O)N[C@@H]21)C(=O)N[C@@H](CCC(N)=O)C(=O)N[C@@H](CO)C(=O)N[C@@H](CC(C)C)C(=O)N[C@@H](CCC(=O)O)C(=O)N[C@H](C(=O)N[C@@H](CO)C(=O)N[C@H](C(=O)O)C(C)C)[C@@H](C)O [ATP2B4] ({X1-Suc}-SSLQSLETSV-OH; C-terminus assumed)
SCRIB PDZ4
  pKd_PDZ4: 4.38
SCRIB PDZ2
  pKd_PDZ2: 4.90
SCRIB PDZ3
  pKd_PDZ3: 5.11
SCRIB PDZ1
  pKd_PDZ1: 5.03
[1]
  pKd (fragmentomic affinity): 5.70

## CC[C@H](C)[C@H](NC(=O)CCC(=O)NCCCOCCOCCOCCCNC(=O)CCCC[C@@H]1SC[C@@H]2NC(=O)N[C@@H]21)C(=O)N[C@@H](CCC(N)=O)C(=O)N[C@@H](CCCNC(=N)N)C(=O)N[C@@H](CCC(=O)O)C(=O)N[C@@H](CC(=O)O)C(=O)N[C@@H](CCC(N)=O)C(=O)N[C@@H](CCC(=O)O)C(=O)N[C@H](C(=O)N[C@@H](C)C(=O)N[C@H](C(=O)O)C(C)C)[C@@H](C)O [DGKZ] ({X1-Suc}-IQREDQETAV-OH; C-terminus assumed)
[2]
  pKd: 5.7
SCRIB PDZ4
  pKd_PDZ4: 4.40
SCRIB PDZ2
  pKd_PDZ2: 4.86
SCRIB PDZ3
  pKd_PDZ3: 5.05
SCRIB PDZ1
  pKd_PDZ1: 4.71
[3]; Hill equation fit, three replicates
  Hill coefficient: 0.6
[3]
  cooperativity: negative cooperativity
[1]
  pKd (fragmentomic affinity): 6.0

## ELOC: Elongin-C
SNX27_PDZ [4]
  FC_AP (log2 fold change): -2.345
  Ratio_AP: 0.1968
SNX27_PDZ [5]
  pKapp_HU_not_filtered: 4.672
  pKapp_significant_binders_HU: 4.672
  BI_HU: 0.3189
  FC_HU (log2 fold change): -0.5541
  Ratio_HU: 0.6811

## MACROH2A1
SNX27_PDZ [6]; nHU-MS, SNX27/MBP, total Jurkat extract, sheet "SNX27&Jurkat"
  Ratio_HU: 0.6592
SNX27_PDZ [6]; nHU-MS, SNX27 bait vs MBP control, total Jurkat extract, sheet "SNX27&Jurkat"
  BI_HU: 0.3408
SNX27_PDZ [6]; nHU-MS, SNX27 bait, total Jurkat extract, not filtered for significance
  pKapp_HU_not_filtered: 4.715
SNX27_PDZ [6]; nHU-MS, SNX27 vs MBP control, total Jurkat extract, sheet "SNX27&Jurkat"
  FC_HU: -0.6013
SNX27_PDZ [7]; AP-MS control pull-down, SNX27/MBP, total Jurkat extract
  Ratio_AP: 19.7749
SNX27_PDZ [7]; AP-MS control pull-down, SNX27 vs MBP, total Jurkat extract
  FC_AP: 4.3056
SNX27_PDZ [7]; AP-MS control pull-down, total Jurkat extract, BINDS / DOES NOT BIND
  BINDER_AP: BINDS

## SNX1: component of the SNX-BAR complex
full-length SNX27
  pKapp: 5.47

## TXNDC12: Thioredoxin domain-containing protein 12 OS=Homo sapiens
SNX27_PDZ [6]; Jurkat, series 1, n = 6
  BI_HU: 0.2712
  FC_HU (log2 fold change): -0.4564
  Ratio_HU: 0.7288
SNX27_PDZ [6]; apparent, Eq. 2, Jurkat, series 1, significant binders (1 σ, P < 0.05)
  pKapp_significant_binders_HU: 4.572
SNX27_PDZ [7]; [8]
  FC_AP (log2 fold change): -0.5204
  Ratio_AP: 0.6972

## VPS26B: component of the retromer complex
full-length SNX27
  pKapp: 5.23

## VTN: Vitronectin
SNX27_PDZ [4]
  FC_AP (log2 fold change): 0.6536
  Ratio_AP: 1.573
SNX27_PDZ [5]
  pKapp_HU_not_filtered: 4.715
  pKapp_significant_binders_HU: 4.715
  BI_HU: 0.3408
  FC_HU (log2 fold change): -0.6012
  Ratio_HU: 0.6592

Source: PMC9770967, “Native holdup (nHU) to measure binding affinities from cell extracts” (Science Advances, 2022)
